Assay results taken from ChEMBL document CHEMBL1140386, “Pharmacophore-based design of HIV-1 integrase strand-transfer inhibitors” (J Med Chem, 2005).
pEC50, pIC50: −log10 of the molar value.

What was measured:
[1] = target: T1, Human immunodeficiency virus type 1 integrase (Human immunodeficiency virus 1, UniProt Q7ZJM1)
Description: Strand transfer inhibitory activity against HIV-1 integrase

[2] = target: T1, Human immunodeficiency virus type 1 integrase; test: In vitro concentration required to inhibit the HIV-1 integrase strand transfer
[3] = tested on: Human immunodeficiency virus 1; test: Effective concentration required to reduce HIV-1-induced cytopathic effect in MT-4 cells; assay type: functional, organism-based; settings: Human immunodeficiency virus 1, MT4
[4] = target: T1, Human immunodeficiency virus type 1 integrase; test: In vitro concentration required to inhibit the overall HIV-1 integrase strand transfer
[5] = target: T1, Human immunodeficiency virus type 1 integrase; test: In vitro concentration required to inhibit the HIV-1 integrase 3'-processing
MT4 [6] = test: Cytotoxic concentration required to reduce MT-4 cell viability; assay type: functional; settings: Homo sapiens
MT4 [7] = test: Selectivity index was measured by the ratio of CC50/EC50; assay type: functional

T1 sequence (Q7ZJM1 whole entry): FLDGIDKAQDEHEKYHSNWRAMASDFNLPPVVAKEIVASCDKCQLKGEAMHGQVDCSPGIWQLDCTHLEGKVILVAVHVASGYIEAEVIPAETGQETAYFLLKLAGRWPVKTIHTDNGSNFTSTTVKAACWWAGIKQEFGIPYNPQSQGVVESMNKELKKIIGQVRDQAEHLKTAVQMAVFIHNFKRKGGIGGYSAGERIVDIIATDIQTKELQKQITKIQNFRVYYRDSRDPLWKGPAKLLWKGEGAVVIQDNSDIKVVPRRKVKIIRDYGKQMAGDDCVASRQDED

Row | Structure (SMILES) | pIC50 [1] | pIC50 [2] | pEC50 [3] | pIC50 [4] | pIC50 [5] | CC50 (MT4 [6]) [nM] | Selectivity index (MT4 [7])
1 | O=C(O)C(=O)/C=C(\O)c1cn(Cc2ccccc2)c2ccccc12 | – | 7.52 | 4.70 | 7.70 | 5.08 | > 78000 | > 4
2 | CCOC(=O)C(=O)/C=C(\O)c1cn(Cc2ccccc2)c2ccc(OC)cc12 | – | 6.17 | 5.22 | 6.82 | 3.79 | 29000 | 5
3 | O=C(O)C(=O)/C=C(\O)c1cn(Cc2ccccc2)c2ccc(Cl)cc12 | – | 7.00 | 5.32 | 8.00 | 6.01 | 37200 | 8
4 | COc1ccc2c(c1)c(/C(O)=C/C(=O)C(=O)O)cn2Cc1ccc(F)cc1 | – | 8.40 | 5.24 | 7.72 | 5.57 | 63500 | 11
5 | COc1ccc2c(c1)c(/C(O)=C/C(=O)C(=O)O)cn2Cc1ccccc1 | – | 7.68 | 5.27 | 7.77 | 5.67 | 86400 | 16
6 | CCOC(=O)C(=O)/C=C(\O)c1cn(Cc2ccccc2)c2ccc(Cl)cc12 | – | 7.52 | 5.35 | 6.66 | 4.99 | 34000 | 8
7 | CCOC(=O)C(=O)/C=C(\O)c1cn(Cc2ccc(F)cc2)c2ccccc12 | – | 5.82 | 5.03 | 5.92 | < 3.57 | 27200 | 3
8 | O=C(O)C(=O)/C=C(\O)c1ccsc1Cc1ccccc1 | 6.74 | – | – | – | – | – | –
9 | O=C(O)C(=O)/C=C(\O)c1cn(Cc2ccc(F)cc2)c2ccccc12 | – | 7.82 | 5.27 | 8.70 | 5.28 | > 74000 | > 14
10 | CCOC(=O)C(=O)/C=C(\O)c1cn(Cc2ccccc2)c2ccccc12 | – | 5.27 | 4.84 | 6.12 | < 3.54 | 120000 | 8
11 | O=C(O)C(=O)/C=C(\O)c1cn(Cc2ccc(F)cc2)c2ccc(Cl)cc12 | – | 8.00 | 5.56 | 6.70 | 5.80 | 53400 | 19
12 | CCOC(=O)C(=O)/C=C(\O)c1cn(Cc2ccc(F)cc2)c2ccc(Cl)cc12 | – | 7.15 | 5.47 | 6.41 | 4.94 | 26500 | 8
13 | CCOC(=O)C(=O)/C=C(\O)c1cn(Cc2ccc(F)cc2)c2ccc(OC)cc12 | – | 6.10 | 4.84 | 6.66 | 3.88 | 127000 | 9
14 | O=C(NCc1ccc(F)cc1)c1nc(N2CCCCS2(=O)=O)c2cccnc2c1O | – | 8.60 | 8.33 | 9.30 | 6.92 | 2150 | 457

Further lines, with some results ahead:

Row | pIC50 [1] | Structure (SMILES) | pIC50 [2] | pEC50 [3] | pIC50 [4] | pIC50 [5] | CC50 (MT4 [6]) [nM] | Selectivity index (MT4 [7])
15 | 4.94 | O=C(O)C(=O)/C=C(\O)c1ccc(Oc2ccccc2)cc1 | – | – | – | – | – | –
16 | 4.00 | CCCCOC(=O)C(=O)/C=C(\O)c1cccn1Cc1ccc(F)cc1 | – | – | – | – | – | –
17 | 8.00 | O=C(O)C(=O)/C=C(\O)c1cccc(Cc2ccccc2)c1 | – | – | – | – | – | –
18 | 7.00 | COc1ccc(Cc2ccccc2)cc1/C(O)=C/C(=O)C(=O)O | – | – | – | – | – | –
19 | 6.30 | O=C(O)C(=O)/C=C(\O)c1ccc(Cc2ccccc2)s1 | – | – | – | – | – | –
20 | 6.82 | COc1ccc(/C(O)=C/C(=O)C(=O)O)cc1Cc1ccccc1 | – | – | – | – | – | –
21 | 6.60 | O=C(O)C(=O)/C=C(\O)c1cccc(Cc2cccc(F)c2)c1 | – | – | – | – | – | –
22 | 5.60 | O=C(O)C(=O)/C=C(\O)c1cccc(Br)c1 | – | – | – | – | – | –
23 | 7.00 | O=C(O)C(=O)/C=C(\O)c1cc(OCc2ccccc2)cc(OCc2ccccc2)c1 | – | – | – | – | – | –
24 | 6.85 | COc1cc(Cc2ccccc2)cc(/C(O)=C/C(=O)C(=O)O)c1 | – | – | – | – | – | –
25 | 4.00 | CC(C)OC(=O)C(=O)/C=C(\O)c1cccn1Cc1ccc(F)cc1 | – | – | – | – | – | –
26 | 5.16 | CCC(=O)C(=O)/C=C(\O)c1c[nH]c2ccc(Cl)cc12 | – | – | – | – | – | –
27 | 6.66 | O=C(O)C(=O)/C=C(\O)c1cccn1Cc1ccccc1 | – | – | – | – | – | –
28 | 7.40 | NC(=O)C(=O)Nc1nc(C(=O)NCc2ccc(F)cc2)c(O)c2ncccc12 | – | – | – | – | – | –
29 | 4.00 | O=C(O)C(=O)/C=C(\O)c1ccnc2ccccc12 | – | – | – | – | – | –
30 | 5.70 | O=C(/C=C(\O)c1c[nH]c2ccc(Cl)cc12)c1nc[nH]n1 | – | – | – | – | – | –
